{"source": "patent US12538922B2", "about": "“Composition and methods for parasite control” (priority 2019, dated 2026)", "key": {"[1]": {"test_system": "adult Aedes aegypti mosquitoes", "experiment": "Mosquito repellency assay (landings and time on warm treated surface)", "format": "in vivo", "details": "for Mean probing time [%, compared to control]: 100% = same time as on vehicle-treated surface; for Repellency, % reduction in landings vs vehicle control: repellency as percentage reduction of control, 100% = no landings", "procedure": "The compound of the invention is mixed with ethanol to make a composition that can be applied to a surface and allowed to dry. After the surface is treated with the compounds of the invention and dried, it is heated to human body temperature, and the number of landings and the total time spent by the mosquitoes on the warm surface by adult Aedes aegypti mosquitoes is recorded automatically by machine vision to measure repellency of each compound.\nRepellency (based on the number of individual landings on the warm surface) is expressed as a percentage reduction of the control, where the average number of mosquitoes landing on a warm surface treated only with the vehicle solvent is counted. 100% means no mosquitoes landed on the warm surface.\nFor mosquitoes that still landed on the warm surface, the time spent on the warm surface is also recorded and expressed as a percentage of the control, corresponding to the average time that mosquitoes spent on the same warm surface when treated only with the vehicle solvent. 100% mean that the mosquitoes spent the same time on the treated warm surface as on a warm surface treated only with the vehicle solvent.\nEach compound/dose is tested in triplicate using a surface of 18.9 cm2 and 100 microliters of solution without the compound (the placebo) or with the compound dilution spread on the surface, and allowed to dry before the test. The average and standard error on triplicates is calculated. The control (using only vehicle solvent) is run with ethanol. The same population of mosquitoes is exposed first to the warm surface treated with the vehicle solvent, then to the surface treated with the compound. The concentration of the solution comprising the test compound was adjusted to ensure the treatment dosage of the compound is according to the final concentration per surface units area in the table."}, "[2]": {"test_system": "R. sanguineus tick larvae", "details": "for Repellence Median (Q1-Q3) [%] / Knockdown Median (Q1-Q3) [%]: pure compound; for Repellence Median (Q1-Q3) [%]: median of replicates; for Knockdown Median (Q1-Q3) [%]: motility reduction over 9 min", "procedure": "FIG. 1 Schematic representation of the tick repellent test. 30-60 tick larvae are deposited in the non-treated area of a circular arena (8.96 cm^2) whereby one quadrant of the surface (2.25 cm^2) is treated. After 1 minute, the distribution of ticks in the treated and untreated areas is measured for a duration of 2 minutes. The repellent/deterrent effect is expressed in %: 100% means that ticks completely avoided the treated surface. Toxicity is measured in the same setup over a duration of 8 minutes and the mortality is expressed in % motility reduction between the beginning and the end of the 8 minutes. Dosages are expressed as a quantity (mg or molarity) per surface unit (m^2), as the compound or extract is deposited at the bottom of the well. Pure compounds: dose given in micromoles/m^2; Extracts: dose given in micrograms/m^2. Tests were run in triplicates.\nThe assay is used to evaluate the repellent/deterrent potential of a test compound or extract. The test includes a preliminary assessment of knockdown efficacy as a secondary endpoint. Knockdown can be defined as a state of intoxication and paralysis that usually precedes death (Wickham et al. (1974) Pesticide Science 5(5): 657-664). The test relies on the questing behavior of ticks that explore their habitat to find a suitable host hunting site and their propensity to avoid areas treated with repellent or irritating substances. Tick knockdown is expressed as a reduction in total motility over a defined period of time, and not by collecting and counting the number of dead and live ticks at the end of the exposure period.\nPlant extracts or synthetic pure alkaloids diluted in methanol (extracts) or ethanol (alkaloids) were deposited on the bottom of wells in a six-well plate. Only one quadrant ([…]) of the bottom surface of each well was treated. The solvent was left to evaporate. The final concentration of the plant extracts was, therefore, expressed in mg/m^2, or in micromoles per square meter (μmol/m^2) for the synthetic alkaloids. Final concentrations applied for plant extracts were 893 (R. sanguineus adults only), 446, 141, 44.6, 14.1, and 4.46 mg/m^2, and 300, 100, 30, 10, and 3 μmol/m^2 for pure alkaloids. Approximately 50 R. sanguineus tick larvae, and exactly 5 R. sanguineus adults, or 5 I. ricinus nymphs were added to the untreated area of each well. Positive (DEET, commercial tick repellent) and negative (methanol or ethanol) controls were evaluated in parallel. Each concentration tested was run in three or more test replicates. After a 1-min incubation on a heating plate, the frequency of tick movement in the treated quadrant and in each of the untreated quadrants was recorded by machine vision. Tick movement on the untreated surface was computed as the median of movement on the three untreated quadrants. To estimate deterrence recordings were performed over a period of 2 min for R. sanguineus larvae, and for 3 minutes for R. sanguineus adults and I. ricinus nymphs, after the 1-min pre-exposure period. To assess knockdown effect, recording was extended to 9 min (starting at the 1-min pre-exposure period and lasting an additional 8 minutes).\nDeterrence activity was calculated as follows: Percent deterrence=1−(movements on treated area/movements on untreated area)×100.\nA difference of 50% between total movements recorded in the treated area versus movements recorded in the untreated area was considered significant.\nThe tick knockdown effect was calculated similarly: Percent knockdown=1−(movements at the end of the imaging period/movements at the beginning of the imaging period)×100.\nA difference of 50% between total movements recorded during the 1 min pre-exposure and total movements measured at 9 min of recording was considered significant."}, "[3]": {"details": "dose 380 μmol/m^2, listed as S enantiomer HCl salt, dihydrochloride"}}, "note": "Where a name gives a salt, the structure may show the parent alone. Read-outs that look alike come from different tables or passages of the source."}
{"smiles": "C1=CC[C@@H](c2cccnc2)NC1", "note": "[(S)-anatabine dihydrochloride]", "values": [{"measurement": "Mean probing time [%, compared to control]", "setting": "[1]; [3]", "value": 71.5, "unit": "%"}, {"measurement": "Repellency, % reduction in landings vs vehicle control", "setting": "[1]; [3]", "value": 25.4, "unit": "%"}, {"measurement": "Mean probing time [%, compared to control]", "setting": "[1]; dose 760 μmol/m^2", "value": 62.7, "unit": "%"}, {"measurement": "Repellency, % reduction in landings vs vehicle control", "setting": "[1]; dose 760 μmol/m^2", "value": 28.2, "unit": "%"}, {"measurement": "MEC (μmol/m^2)", "setting": "[2]; Table 5, N = 3 subset of Table 4", "value": 300, "unit": "μmol/m^2"}, {"measurement": "% repellency", "setting": "[2]; Table 5, N = 3 subset of Table 4, dose 30", "value": 12, "unit": "%"}, {"measurement": "% repellency", "setting": "[2]; Table 5, N = 3 subset of Table 4, dose 300", "value": 78, "unit": "%"}, {"measurement": "Repellence Median (Q1-Q3) [%]", "setting": "[2]; concentration 3 μmol/m^2", "value": 38.4, "unit": "%"}, {"measurement": "Knockdown Median (Q1-Q3) [%]", "setting": "[2]; concentration 3 μmol/m^2", "value": 0, "unit": "%"}, {"measurement": "Repellence Median (Q1-Q3) [%]", "setting": "[2]; concentration 10 μmol/m^2, dihydrochloride", "value": 38.1, "unit": "%"}, {"measurement": "Repellence Median (Q1-Q3) [%]", "setting": "[2]; concentration 10 μmol/m^2, listed as (S)-anatabine, dihydrochloride", "value": 38, "unit": "%"}, {"measurement": "Knockdown Median (Q1-Q3) [%]", "setting": "[2]; concentration 10 μmol/m^2", "value": 4.2, "unit": "%"}, {"measurement": "Repellence Median (Q1-Q3) [%]", "setting": "[2]; concentration 30 μmol/m^2, dihydrochloride", "value": 54.4, "unit": "%"}, {"measurement": "Repellence Median (Q1-Q3) [%]", "setting": "[2]; concentration 30 μmol/m^2, listed as (S)-anatabine, dihydrochloride", "value": 54, "unit": "%"}, {"measurement": "Knockdown Median (Q1-Q3) [%]", "setting": "[2]; concentration 30 μmol/m^2", "value": 14.7, "unit": "%"}, {"measurement": "Repellence Median (Q1-Q3) [%]", "setting": "[2]; concentration 100 μmol/m^2, dihydrochloride", "value": 86.2, "unit": "%"}, {"measurement": "Repellence Median (Q1-Q3) [%]", "setting": "[2]; concentration 100 μmol/m^2, listed as (S)-anatabine, dihydrochloride", "value": 86, "unit": "%"}, {"measurement": "Knockdown Median (Q1-Q3) [%]", "setting": "[2]; concentration 100 μmol/m^2", "value": 23.8, "unit": "%"}, {"measurement": "Repellence Median (Q1-Q3) [%]", "setting": "[2]; concentration 300 μmol/m^2", "value": 79.8, "unit": "%"}, {"measurement": "Knockdown Median (Q1-Q3) [%]", "setting": "[2]; concentration 300 μmol/m^2", "value": 14.2, "unit": "%"}, {"measurement": "Knockdown Minimum effective concentration", "setting": "[2]; smallest concentration with median activity above 50% significance limit", "value": ">300", "unit": "μmol/m^2"}, {"measurement": "Repellence Minimum effective concentration", "setting": "[2]; smallest concentration with median activity above 50% significance limit, dihydrochloride", "value": 30, "unit": "μmol/m^2"}]}
